Reference: patent US20240374739A1, “BILE ACID CONJUGATE” (Curtin University, priority 2021, published 2024)

Key:
[1] = tested on: Neurodegenerated cells (perinatal tissue derived human stem cell model for Alzheimer's disease); test: Lactate dehydrogenase (LDH) assay, in vitro model of Alzheimer's disease; format: cell-based; conditions: probucol 20 μM, SPQ 10 μM, HA-1 10 μM, rivastigmine 2 μM, 24 hours; compared to ND cells
Experimental: (§1) Perinatal tissue derived human stem cell model for Alzheimer's disease (AD) was prepared using proprietary protocols to test the effect of new drug entities. Drug treatment was for 24 h in all the assays.
LDH leakage is a well characterised marker of cellular membrane damage and increase in indicative of lactate deficit, is a hallmark of AD.

[2] = target: T1, Acetylcholinesterase (AChE) (Homo sapiens, UniProt P22303); test: Acetylcholinesterase (AChE) activity, Amplex Red reagent-based assay, Alzheimer's disease model; format: cell-based; conditions: probucol 20 μM, SPQ 10 μM, HA-1 10 μM, rivastigmine 2 μM, 24 hours
T1 construct: We assayed for AChE activity and ACh release in control, neurodegenerated AD and drug treated AD cells; endogenous in cells; host or cells: neurodegenerated cells of a human stem cell AD model derived from perinatal tissue (amniotic membrane mesenchymal stem cells are named for the MTT assay)
T1 sequence (P22303 32-614): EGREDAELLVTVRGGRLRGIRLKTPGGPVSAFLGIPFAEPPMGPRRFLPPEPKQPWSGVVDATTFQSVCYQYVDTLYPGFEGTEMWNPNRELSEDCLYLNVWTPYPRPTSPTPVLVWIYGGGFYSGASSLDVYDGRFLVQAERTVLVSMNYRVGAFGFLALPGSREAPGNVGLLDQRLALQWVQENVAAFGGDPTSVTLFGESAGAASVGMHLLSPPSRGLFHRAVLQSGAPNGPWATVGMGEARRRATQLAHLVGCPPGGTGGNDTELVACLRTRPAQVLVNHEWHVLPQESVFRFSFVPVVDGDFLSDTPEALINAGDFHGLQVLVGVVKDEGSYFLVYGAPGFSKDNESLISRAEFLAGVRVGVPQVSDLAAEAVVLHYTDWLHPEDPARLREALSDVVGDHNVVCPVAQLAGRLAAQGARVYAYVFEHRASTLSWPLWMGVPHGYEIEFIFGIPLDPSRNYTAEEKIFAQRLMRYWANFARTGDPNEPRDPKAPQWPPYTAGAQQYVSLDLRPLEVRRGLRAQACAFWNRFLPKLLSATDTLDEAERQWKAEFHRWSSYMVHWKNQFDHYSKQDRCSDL
Experimental: as §1
(§2) Acetylcholinesterase (AChE) that regulates hydrolysis of acetylcholine (ACh) in the brain, is an important target for treatment of Alzheimer's disease (AD), a feature of which is ACh deficiency. We assayed for AChE activity and ACh release in control, neurodegenerated AD and drug treated AD cells.

[3] = tested on: Neurodegenerated cells (Alzheimer's disease model); test: Acetylcholine (ACh) release, Amplex Red reagent-based assay, Alzheimer's disease model; format: cell-based, human; conditions: probucol 20 μM, SPQ 10 μM, HA-1 10 μM, rivastigmine 2 μM, 24 hours
Experimental: as §1, §2

[4] = tested on: Neurodegenerated cells (Alzheimer's disease model); test: Mitochondrial membrane potential by TMRE assay, Alzheimer's disease model; format: cell-based, human; conditions: AD model; probucol 20 μM, SPQ 10 μM, HA-1 10 μM, rivastigmine 2 μM, 24 hours
Experimental: as §1
Aβ plaques are sources of toxicity that lead to severe structural and functional abnormalities in mitochondria in Alzheimer's disease. For assessing the changes in the electrophysiology and functional changes in the mitochondrial membrane potential, we used TMRE (tetramethylrhodamine ethyl ester) for quantifying changes in mitochondrial membrane potential in live cells by fluorimetry.

[5] = tested on: Neurodegenerated cells (Alzheimer's disease model); test: Gene expression analysis by qRT-PCR for neuronal, cholinergic and AD associated markers; format: cell-based, human; conditions: 24 h drug treatment
Experimental: as §1
For determining the expression of genes involved in AD specific neurodegeneration and neuronal markers, we analysed BACE and chAT (AD and cholinergic markers) and synapsin 1 and neuropilin (neuronal markers).

[6] = tested on: Neurodegenerated cells (Alzheimer's disease model); test: Immunocytochemical localization of AD specific and neuronal markers; format: cell-based, human; conditions: fluorescence micrographs
Experimental: as §1
For further confirmation and protein localization of the AD specific neurodegenerative markers and neuronal markers, we performed immunolocalization for BACE1 and synapsin respectively.
Fluorescence micrographs of BACE1 positive neuronal cells were obtained and the effects of probucol, SPQ and HA-1 on neurodegeneration model were compared. […] In the AD model, as expected BACE1 accumulation is clearly pronounced.
In the case of synapsin 1, a disruption in expression of synapsin protein in ND cells was observed.

[7] = tested on: Neurodegenerated cells (Alzheimer's disease model); test: ROS (reactive oxygen species) assay, Alzheimer's disease model; format: cell-based, human; conditions: AD model
Experimental: as §1
(§3) Increase in oxidative stress is associated with accumulation of amyloid beta seen in the AD model. Increased oxidative stress and nitric oxide levels lead to apoptosis and evoke cytotoxic effects on neurons.

[8] = tested on: Neurodegenerated cells (Alzheimer's disease model); test: Greiss (nitric oxide) assay, Alzheimer's disease model; format: cell-based, human; conditions: AD model
Experimental: as §1, §3

[9] = tested on: Neurodegenerated cells (Alzheimer's disease model); test: Glutathione peroxidase / GSH activity, Alzheimer's disease model; format: cell-based, human; conditions: AD model; vs neurodegeneration
Experimental: as §1
Alzheimer's disease-related increase in oxidative stress is associated with decrease in the levels of brain antioxidant glutathione (GSH).
(Statistical analysis: results are expressed in mean±SD. One-way ANOVA followed by Dunnett's post hoc test was performed to compare all columns vs neurodegeneration (p<0.05; *p<0.05, **p<0.001, ***p<0.0001, ns=non-significant, n=3).)

[10] = tested on: Neurodegenerated cells (perinatal tissue derived human stem cell model for Parkinson's disease); test: Mitochondrial membrane potential by TMRE assay, Parkinson's disease model; format: cell-based; conditions: PD model; probucol 20 μM, SPQ 10 μM, HA-1 10 μM, L-Dopa 50 μM, 24 hours
Experimental: (§4) Perinatal tissue derived human stem cell model for Parkinson's disease (PD) was prepared using proprietary protocols to test the effect of new drug entities. Drug treatment was for 24 hours in all the assays.
Dysfunctional mitochondria and alterations in the mitochondrial membrane potential promote neurodegeneration seen in Parkinson's disease. For assessing the changes in mitochondrial membrane potential, we used TMRE (tetramethylrhodamine ethyl ester) to quantify the changes in live cells by fluorimetry.
Neurodegenerated cells were incubated with probucol (20 μM), SPQ (10 μM), HA-1 (10 μM) and L-Dopa (50 μM) for 24 hours (p<0.05; *p<0.05, **p<0.001, ***p<0.0001, ns=non-significant, n=3).

[11] = tested on: Neurodegenerated cells (Parkinson's disease model); test: Gene expression analysis by qRT-PCR for neuronal, dopaminergic and PD associated markers; format: cell-based, human; conditions: 24 hours drug treatment
Experimental: as §4
Gene expression levels of mature neuronal marker (Synapsin I), dopaminergic markers (Nuclear receptor related 1 (Nurr1), Dopamine transporter (DAT) and Tyrosine hydroxylase (TH)), and PD associated marker (α-synuclein) were analysed to determine the effect of probucol, SPQ, HA-1 and L-Dopa.
(A) Synapsin I, (B) Nurr1, (C) DAT, (D) TH and (E) α-synuclein. (p<0.05; *p<0.05, **p<0.001, ***p<0.0001, n=3).

[12] = tested on: Neurodegenerated cells (Parkinson's disease model); test: ROS assay, Parkinson's disease model; format: cell-based, human; conditions: PD model
Experimental: as §4
(§5) Increase in oxidative stress associated with accumulation of α-synuclein plays a central role in disease progression. Nitric oxide enhances the aggregation of α-synuclein and accelerates disease progression. Increased oxidative stress and nitric oxide levels lead to apoptosis and evoke cytotoxic effects on neurons.

[13] = tested on: Neurodegenerated cells (Parkinson's disease model); test: Greiss (nitric oxide) assay, Parkinson's disease model; format: cell-based, human; conditions: PD model
Experimental: as §4, §5

[14] = tested on: Neurodegenerated cells (Parkinson's disease model); test: Glutathione peroxidase / GSH activity, Parkinson's disease model; format: cell-based, human; conditions: PD model; vs neurodegeneration
Experimental: as §4
Parkinson's disease-related increase in oxidative stress is associated with mitochondrial dysfunction and subsequent decrease in the levels of brain antioxidant glutathione (GSH).
(Statistical analysis: Results are expressed in mean±SD. One-way ANOVA followed by Dunnett's post hoc test was performed to compare all columns vs neurodegeneration (p<0.05; *p<0.05, **p<0.001, ***p<0.0001, ns=non-significant, n=3).)

For CC(=O)O[C@@H]1CC[C@@]2(C)[C@H](CC[C@@H]3[C@@H]2CC[C@]2(C)[C@@H]([C@H](C)CCC(=O)Oc4c(C(C)(C)C)cc(SC(C)(C)Sc5cc(C(C)(C)C)c(O)c(C(C)(C)C)c5)cc4C(C)(C)C)CC[C@@H]32)C1 [HA-1, 2,6-di-tert-butyl-4-((2-((3,5-di-tert-butyl-4-hydroxyphenyl)thio)propan-2-yl)thio)phenyl (4R)-4-[(3R,5R,8R,9S,10S,13R,14S,17R)-3-acetoxy-10,13-dimethyl-2,3,4,5,6,7,8,9,11,12,14,15,16,17-tetradecahydro-1H-cyclopenta[a]phenanthren-17-yl]pentanoate], the “LDH activity / LDH release” value [1] was “decreased significantly LDH activity”, the “Acetylcholinesterase (AChE) activity” value [2] was “inhibition of acetylcholinesterase (AChE) similar to rivastigmine” and the “Acetylcholine (ACh) release / level” value [3] was “increase/maintain the level of acetylcholine (ACh)”. For the same molecule, the “mitochondrial membrane potential (TMRE)” value [4] was “maintain the mitochondrial membrane potential”, the “BACE1 gene expression (qRT-PCR)” value [5] was “decrease the level of beta secretase 1 (BACE1)” and the “ChAT gene expression (qRT-PCR)” value [5] was “increase the level of choline acetyltransferase (ChAT)”. The “neuropilin gene expression (qRT-PCR)” value [5] was “increased”, the “synapsin 1 (Syn) gene expression (qRT-PCR)” value [5] was “increased” and the “accumulation of BACE1 protein (immunolocalization)” value [6] was “least expression”. The “synapsin 1 protein expression (immunolocalization)” value (shortened to “synapsin 1 protein expression”) [6] was “clear reversal of degeneration”, the “intracellular reactive oxidative stress (ROS)” value [7] was “decrease the level of ROS” and the nitric oxide level [8] was “prevent the reduction of endogenous nitric oxide level”. The “glutathione (GSH) activity” value [9] was “increase in the anti-oxidant GSH activity”, the “mitochondrial membrane potential (TMRE)” value [10] was “maintain the mitochondrial membrane potential” and the “DAT gene expression (qRT-PCR)” value [11] was “increase the expression of all the dopaminergic markers tested”. The “Nurr1 gene expression (qRT-PCR)” value [11] was “increase the expression of all the dopaminergic markers tested”, the “TH gene expression (qRT-PCR)” value [11] was “increase the expression of all the dopaminergic markers tested” and the “α-synuclein gene expression (qRT-PCR)” value [11] was “decreased expression of α-synuclein”. For the same molecule, the “intracellular reactive oxidative stress (ROS)” value [12] was “decrease the level of ROS”, the nitric oxide level [13] was “prevent the reduction of endogenous nitric oxide levels” and the “glutathione (GSH) activity” value [14] was “increase in the GSH activity”.
In the case of CC1(C)SC2(C=C(C(C)(C)C)C(=O)C(C(C)(C)C)=C2)C2(C=C(C(C)(C)C)C(=O)C(C(C)(C)C)=C2)S1 [SPQ, 2,4,9,11-tetrakis(1,1-dimethylethyl)-14,14-dimethyl-13,15-dithiadispiro[5.0.5.3]pentadeca-1,4,8,11-tetraene-3,10-dione], the “LDH activity / LDH release” value [1] was “decreased significantly LDH activity”, the “Acetylcholinesterase (AChE) activity” value [2] was “inhibition of acetylcholinesterase (AChE) similar to rivastigmine” and the “Acetylcholine (ACh) release / level” value [3] was “increase/maintain the level of acetylcholine (ACh)”. For the same molecule, the “mitochondrial membrane potential (TMRE)” value [4] was “maintain the mitochondrial membrane potential”, the “BACE1 gene expression (qRT-PCR)” value [5] was “decrease the level of beta secretase 1 (BACE1)” and the “ChAT gene expression (qRT-PCR)” value [5] was “increase the level of choline acetyltransferase (ChAT)”. For the same molecule, the “neuropilin gene expression (qRT-PCR)” value [5] was “increased”, the “synapsin 1 (Syn) gene expression (qRT-PCR)” value [5] was “increased” and the “synapsin 1 protein expression” value [6] was “clear reversal of degeneration”. For the same molecule, the “intracellular reactive oxidative stress (ROS)” value [7] was “decrease the level of ROS”, the nitric oxide level [8] was “prevent the reduction of endogenous nitric oxide level” and the “glutathione (GSH) activity” value [9] was “increase in the anti-oxidant GSH activity”. For the same molecule, the “mitochondrial membrane potential (TMRE)” value [10] was “enhanced restoration of the mitochondrial membrane potential”, the “DAT gene expression (qRT-PCR)” value [11] was “significantly increased” and the “Synapsin I gene expression (qRT-PCR)” value [11] was “significantly increased”. The “TH gene expression (qRT-PCR)” value [11] was “significantly increased”, the “α-synuclein gene expression (qRT-PCR)” value [11] was “decreased expression of α-synuclein” and the “intracellular reactive oxidative stress (ROS)” value [12] was “decrease the level of ROS”. The nitric oxide level [13] was “prevent the reduction of endogenous nitric oxide levels” and the “glutathione (GSH) activity” value [14] was “increase in the GSH activity”.
In the case of CC(C)(Sc1cc(C(C)(C)C)c(O)c(C(C)(C)C)c1)Sc1cc(C(C)(C)C)c(O)c(C(C)(C)C)c1 [probucol, 2,6-ditert-butyl-4-[2-(3,5-ditert-butyl-4-hydroxyphenyl)sulfanylpropan-2-ylsulfanyl]phenol], the “LDH activity / LDH release” value [1] was “decreased significantly LDH activity”, the “Acetylcholinesterase (AChE) activity” value [2] was “inhibition of acetylcholinesterase (AChE) similar to rivastigmine” and the “Acetylcholine (ACh) release / level” value [3] was “increase/maintain the level of acetylcholine (ACh)”. The “mitochondrial membrane potential (TMRE)” value [4] was “maintain the mitochondrial membrane potential”, the “BACE1 gene expression (qRT-PCR)” value [5] was “decrease the level of beta secretase 1 (BACE1)” and the “ChAT gene expression (qRT-PCR)” value [5] was “increase the level of choline acetyltransferase (ChAT)”. For the same molecule, the “neuropilin gene expression (qRT-PCR)” value [5] was “increased”, the “synapsin 1 (Syn) gene expression (qRT-PCR)” value [5] was “increased” and the “synapsin 1 protein expression” value [6] was “clear reversal of degeneration”. For the same molecule, the “intracellular reactive oxidative stress (ROS)” value [7] was “decrease the level of ROS”, the nitric oxide level [8] was “prevent the reduction of endogenous nitric oxide level” and the “glutathione (GSH) activity” value [9] was “increase in the anti-oxidant GSH activity”. The “mitochondrial membrane potential (TMRE)” value [10] was “maintain the mitochondrial membrane potential”, the “TH gene expression (qRT-PCR)” value [11] was “clearly upregulated” and the “α-synuclein gene expression (qRT-PCR)” value [11] was “decreased expression of α-synuclein”. The “intracellular reactive oxidative stress (ROS)” value [12] was “decrease the level of ROS”, the nitric oxide level [13] was “prevent the reduction of endogenous nitric oxide levels” and the “glutathione (GSH) activity” value [14] was “increase in the GSH activity”.
